Measured values taken from patent publication US20160346291A1, “COMPOSITIONS AND THERAPEUTIC METHODS FOR ACCELERATED PLAQUE REGRESSION” (Resverlogix Corp, priority 2013, published 2016).

Each compound was assayed on ApoA-I mRNA (assay: ApoA-I mRNA quantitation in HepG2 cells (real-time PCR)). Conditions: concentration less than or equal to 100 uM, fold induction relative to DMSO control.
Type: cell-based
Set-up: key: Active: An active compound is one that causes a >15% increase in ApoA-I mRNA at a concentration less than or equal to 100 uM
Protocol: At time of harvesting, the spent media was removed from the HepG2 cells and immediately placed on ice (for immediate use) or at −80° C. (for future use) in ApoA-I and albumin ELISAs. The cells remaining in the plate wells were rinsed in 200 μL PBS. PBS was carefully removed to avoid removing any loosely attached cells.
Once the PBS was removed, 85 μL cell lysis solution was added to the cells in each well and incubated for 5-10 min at room temperature, to allow for complete cell lysis and detachment. mRNA was then prepared using the “mRNA Catcher PLUS plate” from Invitrogen, according to the protocol supplied. After the last wash, as much wash buffer as possible was aspirated without allowing the wells to dry. Elution Buffer (E3, 80 μL) was then added to each well. mRNA was then eluted by incubating the mRNA Catcher PLUS plate with Elution Buffer for 5 min at 68° C. and then immediately placing the plate on ice.
The eluted mRNA was isolated and then used in a one-step real-time […]-PCR reaction, using components of the Ultra Sense Kit together with Applied Biosystems primer-probe mixes. Real-time PCR data was analyzed, using the Ct values, to determine the fold induction of each unknown sample, relative to the control (that is, relative to the control for each independent DMSO concentration).
The following compounds of Formula I were evaluated in this assay. An active compound is one that causes a >15% increase in ApoA-I mRNA at a concentration less than or equal to 100 uM.

SMILES	Effect on ApoA-I mRNA levels
COc1cc(OC)c2c(=O)[nH]c(-c3cc(C)c(OCCNC(=O)c4ccccc4)c(C)c3)nc2c1 [N-(2-(4-(5,7-dimethoxy-4-oxo-3,4-dihydroquinazolin-2-yl)-2,6-dimethylphenoxy)ethyl)benzamide]	Active
COc1cc(OC)c2c(=O)[nH]c(-c3ccc(OCC(N)=O)cc3)nc2c1 [2-(4-(5,7-dimethoxy-4-oxo-3,4-dihydroquinazolin-2-yl)phenoxy)acetamide]	Active
COc1cc(OC)c2c(=O)[nH]c(-c3ccccc3Cl)nc2c1 [2-(2-chlorophenyl)-5,7-dimethoxyquinazolin-4(3H)-one]	Active
COc1cc(OC)c2c(=O)[nH]c(-c3ccc(N4CCOCC4)cc3)nc2c1 [5,7-dimethoxy-2-(4-morpholinophenyl)quinazolin-4(3H)-one]	Active
COc1cc(O)nc2cc(-c3cc(C)c(O)c(C)c3)[nH]c(=O)c12 [2-hydroxy-7-(4-hydroxy-3,5-dimethylphenyl)-4-methoxy-1,6-naphthyridin-5(6H)-one]	Active
COc1cccc2nc(-c3cc(C)c(OCCO)c(C)c3)[nH]c(=O)c12 [2-(4-(2-hydroxyethoxy)-3,5-dimethylphenyl)-5-methoxyquinazolin-4(3H)-one]	Active
Cc1cc(-c2nc3ccc(Br)cc3c(=O)[nH]2)cc(C)c1O [6-bromo-2-(4-hydroxy-3,5-dimethylphenyl)quinazolin-4(3H)-one]	Active
COc1cc2cc(-c3cc(C)c(O)c(C)c3)n(C)c(=O)c2c(OC)c1C [3-(4-hydroxy-3,5-dimethylphenyl)-6,8-dimethoxy-2,7-dimethylisoquinolin-1(2H)-one]	Active
COc1cc(OC)c2c(=O)[nH]c(-c3cc(C)c(OCC(=O)O)c(C)c3)nc2c1 [2-(4-(5,7-dimethoxy-4-oxo-3,4-dihydroquinazolin-2-yl)-2,6-dimethylphenoxy)acetic acid]	Active
COc1cc(OC)c2c(=O)[nH]c(-c3cc(C)c(OC)c(C)c3)nc2c1 [5,7-dimethoxy-2-(4-methoxy-3,5-dimethylphenyl)quinazolin-4(3H)-one]	Active
COc1cc(OC)c2c(=O)[nH]c(-c3cc(C)c(NC(=O)CO)c(C)c3)nc2c1 [N-(4-(5,7-dimethoxy-4-oxo-3,4-dihydroquinazolin-2-yl)-2,6-dimethylphenyl)-2-hydroxyacetamide]	Active
COc1ccc(-c2nc3cc(OC)cc(OC)c3c(=O)[nH]2)cc1 [5,7-dimethoxy-2-(4-methoxyphenyl)quinazolin-4(3H)-one]	Active
COc1cc(OC)c2c(=O)[nH]c(-c3cc(C)c(OCCN(C)C)c(C)c3)cc2c1 [3-(4-(2-(dimethylamino)ethoxy)-3,5-dimethylphenyl)-6,8-dimethoxyisoquinolin-1(2H)-one]	Active
Cc1cc(-c2cc3ncccc3c(=O)[nH]2)cc(C)c1O [7-(4-hydroxy-3,5-dimethylphenyl)-1,6-naphthyridin-5(6H)-one]	Active
Cc1cc(C)c2c(=O)[nH]c(-c3cc(C)c(OCCO)c(C)c3)nc2c1 [2-(4-(2-hydroxyethoxy)-3,5-dimethylphenyl)-5,7-dimethylquinazolin-4(3H)-one]	Active
COc1cc(OC)c2c(=O)[nH]c(-c3cc(C)c(OC)c(C)c3)cc2n1 [2,4-dimethoxy-7-(4-methoxy-3,5-dimethylphenyl)-1,6-naphthyridin-5(6H)-one]	Active
COc1cc2cc(-c3cc(C)c(O)c(C)c3)[nH]c(=O)c2c(OC)c1CN1CCOCC1 [3-(4-hydroxy-3,5-dimethylphenyl)-6,8-dimethoxy-7-(morpholinomethyl)isoquinolin-1(2H)-one]	Active
Cc1cc(-c2cc3ccc(CN4CCOCC4)cc3c(=O)[nH]2)cc(C)c1O [3-(4-hydroxy-3,5-dimethylphenyl)-7-(morpholinomethyl)isoquinolin-1(2H)-one]	Active
COc1cc(OC)c2c(=O)[nH]c(-c3cc(C(C)(C)C)c(O)c(C(C)(C)C)c3)nc2c1 [2-(3,5-di-tert-butyl-4-hydroxyphenyl)-5,7-dimethoxyquinazolin-4(3H)-one]	Active
COc1cc(OC)c2c(=O)[nH]c(-c3cccc(-c4ccc(SC)cc4)n3)nc2c1 [5,7-dimethoxy-2-(6-(4-(methylthio)phenyl)pyridin-2-yl)quinazolin-4(3H)-one]	Active

SMILES	Effect on ApoA-I mRNA levels
CC(=O)Nc1ccc2nc(-c3cc(C)c(OCCO)c(C)c3)[nH]c(=O)c2c1 [N-(2-(4-(2-hydroxyethoxy)-3,5-dimethylphenyl)-4-oxo-3,4-dihydroquinazolin-6-yl)acetamide]	Active
COc1cc(OC)c2c(=O)[nH]c(-c3ccc(N(CCO)CCO)cc3)nc2c1 [2-(4-(bis(2-hydroxyethyl)amino)phenyl)-5,7-dimethoxyquinazolin-4(3H)-one]	Active
Oc1ccc(-c2cc3ccccc3cn2)cc1 [4-Isoquinolin-3-yl-phenol]	Active
COc1cc(OC)c2c(=O)[nH]c(-c3cc(C)c(OCCNS(=O)(=O)c4ccc(Cl)cc4)c(C)c3)nc2c1 [4-chloro-N-(2-(4-(5,7-dimethoxy-4-oxo-3,4-dihydroquinazolin-2-yl)-2,6-dimethylphenoxy)ethyl)benzenesulfonamide]	Active
COc1cc(OC)c2c(=O)[nH]c(-c3cc(C)c(OCCN4C(=O)c5ccccc5C4=O)c(C)c3)nc2c1 [2-(2-(4-(5,7-dimethoxy-4-oxo-3,4-dihydroquinazolin-2-yl)-2,6-dimethylphenoxy)ethyl)isoindoline-1,3-dione]	Inactive
COc1cc(OC)c2c(=O)[nH]c(-c3ccc(OCCO)c(Cl)c3)nc2c1 [2-(3-chloro-4-(2-hydroxyethoxy)phenyl)-5,7-dimethoxyquinazolin-4(3H)-one]	Active
COc1cc(OC)c2c(=O)[nH]c(-c3cc(C)c(O)c(C)c3)nc2n1 [2-(4-hydroxy-3,5-dimethylphenyl)-5,7-dimethoxypyrido[2,3-d]pyrimidin-4(3H)-one]	Active
CCCNC(=O)OCCOc1c(C)cc(-c2nc3cc(OC)cc(OC)c3c(=O)[nH]2)cc1C [2-(4-(5,7-Dimethoxy-4-oxo-3,4-dihydroquinazolin-2-yl)-2,6-dimethyl-phenoxy)ethyl propylcarbamate]	Active
COc1cc(OC)c2c(=O)[nH]c(-c3ccc(OCCO)c(C)c3)nc2c1 [2-(4-(2-hydroxyethoxy)-3-methylphenyl)-5,7-dimethoxyquinazolin-4(3H)-one]	Active
COc1cc(OC)c2c(=O)[nH]c(-c3ccc(O)cc3)cc2c1 [3-(4-hydroxyphenyl)-6,8-dimethoxyisoquinolin-1(2H)-one]	Active
COc1cc2c(c(OC)c1)S(=O)(=O)NC(c1cc(C)c(O)c(C)c1)=C2 [6,8-dimethoxy-3-(4-hydroxy-3,5-dimethylphenyl)-2H-1,2-benzothiazine-1,1-dioxide]	Active
O=c1[nH]c(-c2ccc3c(c2)OCCO3)nc2ccccc12 [2-(2,3-dihydrobenzo[b][1,4]dioxin-6-yl)quinazolin-4(3H)-one]	Active
COc1cc(O)c2c(=O)[nH]c(-c3cc(C)c(O)c(C)c3)nc2c1 [5-hydroxy-2-(4-hydroxy-3,5-dimethylphenyl)-7-methoxyquinazolin-4(3H)-one]	Active
COc1cc2nc(-c3cc(C)c(O)c(C)c3)[nH]c(=O)c2c(OC)c1CN1CCOCC1 [2-(4-hydroxy-3,5-dimethylphenyl)-5,7-dimethoxy-6-(morpholinomethyl)quinazolin-4(3H)-one]	Active
CNC(=O)OCCOc1c(C)cc(-c2nc3cc(OC)cc(OC)c3c(=O)[nH]2)cc1C [2-(4-(5,7-Dimethoxy-4-oxo-3,4-dihydroquinazolin-2-yl)-2,6-dimethyl-phenoxy)ethyl methylcarbamate]	Active
COc1cc(OC)c2c(=O)[nH]c(-c3ccc(NC(=O)CO)cc3)nc2c1 [N-(4-(5,7-dimethoxy-4-oxo-3,4-dihydroquinazolin-2-yl)phenyl)-2-hydroxyacetamide]	Active
COc1cc(OC)c2c(=O)[nH]c(-c3cc(C)c(OCCN4CCCC4)c(C)c3)nc2c1 [2-(3,5-dimethyl-4-(2-(pyrrolidin-1-yl)ethoxy)phenyl)-5,7-dimethoxyquinazolin-4(3H)-one]	Active
COc1cc(OC)c2c(=O)[nH]c(-c3ccc(O)c(OC)c3)nc2c1 [2-(4-hydroxy-3-methoxyphenyl)-5,7-dimethoxyquinazolin-4(3H)-one]	Active
O=c1[nH]c(-c2ccc(N(CCO)CCO)cc2)nc2ccccc12 [2-(4-(bis(2-hydroxyethyl)amino)phenyl)quinazolin-4(3H)-one]	Active
NC(=O)COc1ccc(-c2nc3ccccc3c(=O)[nH]2)cc1 [2-(4-(4-oxo-3,4-dihydroquinazolin-2-yl)phenoxy)acetamide]	Active
